This is an account of results in patent publication US10821115B2, “Compounds that inhibit Mcl-1 protein” (priority 2017, dated 2020).

Read-outs that look alike come from different tables or passages of the source.

Experiment [1] has as its target recombinant human Mcl-1 (residues 171-327) / Bim interaction (Homo sapiens (Human), UniProt Q07820). The experiment in a line: biochemical. It is filed as binding. To be noted: read-out: Mcl-1 HTRF IC50.
The test system of experiment [2] is human multiple myeloma cell line, OPM-2. Put plainly: Cell viability assay (OPM-2 10 FBS), CellTiter-Glo. It is filed as cell-based. Summed up: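 OPM-2 cells at 3000 cells/well in RPMI 1640 with 10% FBS were exposed to serially diluted compounds for 16 h at 37 °C, 5% CO2.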
The mark [3] stands for this setting: 0.1 nM Mcl-1(171-327), 0.05 nM biotin-Bim (51-76).
The mark [4] stands for this setting: Homo sapiens, OPM-2, 16 h, read-out: OPM-2 10% FBS IC50 IP, OPM-2 cells, 10% FBS, 16 h incubation.
Setting [5] is: TR-FRET, Mcl-1(171-327) / biotin-Bim (51-76).
Setting [6] is: Homo sapiens, OPM-2, 16 h, read-out: OPM-2 10% FBS IC50 IP, OPM-2 cells, 10% FBS, 16 h, CellTiter-Glo.

Chain of recombinant human Mcl-1 (residues 171-327) / Bim interaction (Q07820 171-327): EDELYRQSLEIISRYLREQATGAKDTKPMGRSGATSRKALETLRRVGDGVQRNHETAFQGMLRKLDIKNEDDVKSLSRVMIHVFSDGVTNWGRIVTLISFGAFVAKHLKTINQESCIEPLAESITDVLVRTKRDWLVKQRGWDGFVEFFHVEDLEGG

Turning to `CO[C@@]1(CN2CCN(c3ncccn3)CC2)/C=C/C[C@H](C)[C@@H](C)S(=O)(=O)NC(=O)c2ccc3c(c2)N(C[C@@H]2CC[C@H]21)C[C@@]1(CCCc2cc(Cl)ccc21)CO3` [Example 256, (1S,3′R,6′R,7′S,8′E,11′S,12′R)-6-chloro-7′-methoxy-11′,12′-dimethyl-7′-((4-(2-pyrimidinyl)-1-piperazinyl)methyl)-3,4-dihydro-2H,15′H-spiro[naphthalene-1,22′-[20]oxa[13]thia[1,14]diazatetracyclo [14.7.2.0~3,6~.0~19,24~]pentacosa[8,16,18,24]tetraen]-15′-one 13′,13′-dioxide], the IC50 was found to be 0.433 nM in experiment [1] (setting [3]) and 1640 nM in experiment [2] (setting [4]).
`C[C@@H]1[C@@H](C)C/C=C/[C@](O)(C2SCCCS2)[C@@H]2CC[C@H]2CN2C[C@@]3(CCCc4cc(Cl)ccc43)COc3ccc(cc32)C(=O)NS1(=O)=O` [Example 100259, (1S,3′R,6′R,7′R,8′E,11′S,12′R)-6-chloro-7′-(1,3-dithian-2-yl)-7′-hydroxy-11′,12′-dimethyl-3,4-dihydro-2H,15′H-spiro[naphthalene-1,22′-[20]oxa[13]thia[1,14]diazatetracyclo [14.7.2.0~3,6~.0~19,24~]pentacosa[8,16,18,24]tetraen]-15′-one 13′,13′-dioxide]: the half-inhibitory concentration (IC50) in experiment [1] (setting [5]) was 6.18 nM; in experiment [2] (setting [6]), 1250 nM.
The like results for `C=C(F)C[C@@]1(O)/C=C/C[C@H](C)[C@@H](C)S(=O)(=O)NC(=O)c2ccc3c(c2)N(C[C@@H]2CC[C@H]21)C[C@@]1(CCCc2cc(Cl)ccc21)CO3` [Example 100564, (1S,3′R,6′R,7′R,8′E,11′S,12′R)-6-chloro-7′-(2-fluoro-2-propen-1-yl)-7′-hydroxy-11′,12′-dimethyl-3,4-dihydro-2H,15′H-spiro[naphthalene-1,22′-[20]oxa[13]thia[1,14]diazatetracyclo [14.7.2.0~3,6~.0~19,24~]pentacosa[8,16,18,24]tetraen]-15′-one 13′,13′-dioxide] were, in that order, 0.333 nM and 1430 nM.
As for `CO[C@@]1(CN2CCN3CCN(S(C)(=O)=O)C[C@@H]3C2)/C=C/C[C@H](C)[C@@H](C)S(=O)(=O)NC(=O)c2ccc3c(c2)N(C[C@@H]2CC[C@H]21)C[C@@]1(CCCc2cc(Cl)ccc21)CO3` (single isomer, unassigned) [Example 244], the IC50 was found to be 1.65 nM in experiment [1] (setting [3]) and 638 nM in experiment [2] (read-out: OPM-2 10% FBS IC50 IP, OPM-2 cells, 10% FBS, 16 h incubation).
`C[C@@H]1[C@@H](C)C/C=C/[C@](O)(CC(=O)OCC2(C)COC2)[C@@H]2CC[C@H]2CN2C[C@@]3(CCCc4cc(Cl)ccc43)COc3ccc(cc32)C(=O)NS1(=O)=O` [Example 100298, (3-methyl-3-oxetanyl)methyl ((1S,3′R,6′R,7′R,8′E,11′S,12′R)-6-chloro-7′-hydroxy-11′,12′-dimethyl-13′,13′-dioxido-15′-oxo-3,4-dihydro-2H-spiro[naphthalene-1,22′-[20]oxa[13]thia[1,14]diazatetracyclo [14.7.2.0~3,6~.0~19,24~]pentacosa[8,16,18,24]tetraen]-7′-yl)acetate]: the results for the IC50 in experiment [1] (setting [5]) and in experiment [2] (setting [6]) were 0.14 nM and 199 nM, respectively.
`CO[C@]1(CN2CCN3CCOC[C@@H]3C2)/C=C/C[C@H](C)[C@@H](CCO)S(=O)(=O)NC(=O)c2ccc3c(c2)N(C[C@@H]2CC[C@H]21)C[C@@]1(CCCc2cc(Cl)ccc21)CO3` [Example 357, (1S,3′R,6′R,7′R,8′E,11′S,12′R)-6-chloro-7′-((9aS)-hexahydropyrazino[2,1-c][1,4]oxazin-8(1H)-ylmethyl)-12′-(2-hydroxyethyl)-7′-methoxy-11′-methyl-3 ,4-dihydro-2H,15′H-spiro[naphthalene-1,22′-[20]oxa[13]thia[1,14]diazatetracyclo [14.7.2.0~3,6~.0~19,24~]pentacosa[8,16,18,24]tetraen]-15′-one 13′,13′-dioxide]: the IC50 was 0.067 nM in experiment [1] (setting [3]) and 118 nM in experiment [2] (setting [4]).
The corresponding values for `CO[C@@]1(CN2CCN(Cc3ncon3)CC2)/C=C/C[C@H](C)[C@@H](C)S(=O)(=O)NC(=O)c2ccc3c(c2)N(C[C@@H]2CC[C@H]21)C[C@@]1(CCCc2cc(Cl)ccc21)CO3` [Example 321, (1S,3′R,6′R,7′S,8′E,11′S,12′R)-6-chloro-7′-methoxy-11′,12′-climethyl-7′-((4-(1,2,4-oxadiazol-3-ylmethyl)-1-piperazinyl)methyl)-3,4-dihydro-2H,15′H-spiro[naphthalene-1,22′-[20]oxa[13]thia[1,14]diazatetracyclo [14.7.2.0~3,6~.0~19,24~]pentacosa[8,16,18,24]tetraen]-15′-one 13′,13′-dioxide] are 0.145 nM and 92 nM.
On to `C[C@@H]1[C@@H](C)CCC[C@@](O)([C@@H]2CCN(C)C2=O)[C@@H]2CC[C@H]2CN2C[C@@]3(CCCc4cc(Cl)ccc43)COc3ccc(cc32)C(=O)NS1(=O)=O` [Example 100202, (1S,3′R,6′R,7′S,11′S,12′R)-6-chloro-7′-hydroxy-11′,12′-dimethyl-7′-((3S)-1-methyl-2-oxo-3-pyrrolidinyl)-3,4-dihydro-2H,15′H-spiro[naphthalene-1,22′-[20]oxa[13]thia[1,14]diazatetracyclo [14.7.2.0~3,6~.0~19,24~]pentacosa[16,18,24]trien]-15′-one 13′,13′-dioxide], for which the IC50 came to 0.352 nM in experiment [1] (setting [5]) and 928 nM in experiment [2] (read-out: OPM-2 10% FBS IC50 IP, OPM-2 cells, 10% FBS, 16 h, CellTiter-Glo).
`C[C@@H]1[C@@H](C)C/C=C/[C@](O)([C@H](O)C(=O)N(C)C)[C@@H]2CC[C@H]2CN2C[C@@]3(CCCc4cc(Cl)ccc43)COc3ccc(cc32)C(=O)NS1(=O)=O` [Example 100290, (2S)-2-((1S,3′R,6′R,7′R,8′E,11′S,12′R)-6-chloro-7′-hydroxy-11′,12′-dimethyl-13′,13′-dioxido-15′-oxo-3,4-dihydro-2H-spiro[naphthalene-1,22′-[20]oxa[13]thia[1,14]diazatetracyclo [14.7.2.0~3,6~.0~19,24~]pentacosa[8,16,18,24]tetraen]-7′-yl)-2-hydroxy-N,N-dimethylethanamide]: the IC50 in experiment [1] (setting [5]) was 0.116 nM; in experiment [2] (setting [6]), 259 nM.
Take `C[C@@H]1[C@@H](C)C/C=C/[C@](CN2CCN3CCOC[C@@H]3C2)(OCC(F)(F)F)[C@@H]2CC[C@H]2CN2C[C@@]3(CCCc4cc(Cl)ccc43)COc3ccc(cc32)C(=O)NS1(=O)=O` [Example 49, (1S,3′R,6′R,7′S,8′E,11′S,12′R)-6-chloro-7′-((9aS)-hexahydropyrazino[2,1-c][1,4]oxazin-8(1H)-ylmethyl)-11′,12′-dimethyl-7′-(2,2,2-trifluoroethoxy)-3,4-dihydro-2H,15′H-spiro[naphthalene-1,22′-[20]oxa[13]thia[1,14]diazatetracyclo [14.7.2.0~3,6~.0~19,24~]pentacosa[8,16,18,24]tetraen]-15′-one 13′,13′-dioxide]: the IC50 in experiment [1] (setting [3]) worked out at 0.087 nM; in experiment [2] (setting [4]), 185 nM.
As to `CC[C@@H]1CC/C=C/[C@](COCCN2CCOCC2)(OC)[C@@H]2CC[C@H]2CN2C[C@@]3(CCCc4cc(Cl)ccc43)COc3ccc(cc32)C(=O)NS1(=O)=O` (single isomer, unassigned) [Example 100597], the IC50 in experiment [1] (setting [5]) turned out to be 0.263 nM; in experiment [2] (setting [6]), 577 nM.
The like results for `CO[C@@]1(CCO)/C=C/C[C@H](C)[C@@H](C)S(=O)(=O)N(C)C(=O)c2ccc3c(c2)N(C[C@@H]2CC[C@H]21)C[C@@]1(CCCc2cc(Cl)ccc21)CO3` [Example 100219, (1S,3′R,6′R,7′S,8′E,11′S,12′R)-6-chloro-7′-(2-hydroxyethyl)-7′-methoxy-11′,12′,14′-trimethyl-3,4-dihydro-2H,15′H-spiro[naphthalene-1,22′-[20]oxa[13]thia[1,14]diazatetracyclo [14.7.2.0~3,6~.0~19,24~]pentacosa[8,16,18,24]tetraen]-15′-one 13′,13′-dioxide] were, in that order, 0.401 nM and 974 nM.
The corresponding values for `CO[C@@]1(C#CCCN2CCOCC2)/C=C/C[C@H](C)[C@@H](C)S(=O)(=O)NC(=O)c2ccc3c(c2)N(C[C@@H]2CC[C@H]21)C[C@@]1(CCCc2cc(Cl)ccc21)CO3` (single isomer, unassigned) [Example 100012] are 0.275 nM and 1130 nM.
The corresponding values for `CO[C@@]1(CC(=O)N2CCN(C)CC2)/C=C/C[C@H](C)[C@@H](C)S(=O)(=O)NC(=O)c2ccc3c(c2)N(C[C@@H]2CC[C@H]21)C[C@@]1(CCCc2cc(Cl)ccc21)CO3` [Example 100376, (1S,3′R,6′R,7′S,8′E,11′S,12′R)-6-chloro-7′-methoxy-11′,12′-dimethyl-7′-(2-(4-methyl-1-piperazinyl)-2-oxoethyl)-3,4-dihydro-2H,15′H-spiro[naphthalene-1,22′-[20]oxa[13]thia[1,14]diazatetracyclo [14.7.2.0~3,6~.0~19,24~]pentacosa[8,16,18,24]tetraen]-15′-one 13′,13′-dioxide] are 0.15 nM and 362 nM.
With `C[C@@H]1[C@@H](C)C/C=C/[C@](O)(CN(C)CCO)[C@@H]2CC[C@H]2CN2C[C@@]3(CCCc4cc(Cl)ccc43)COc3ccc(cc32)C(=O)NS1(=O)=O` [Example 129], the results for the concentration for half-maximal inhibition (IC50) in experiment [1] (setting [3]) and in experiment [2] (setting [4]) were 1.69 nM and 2630 nM, respectively.
